Laboratory results: patent US12655116B2, “Substituted isophthalic acid diamides” (Bayer Aktiengesellschaft, priority 2020, dated 2026)

Columns and labels:
PHBPU [1] = experiment: Pre-emergence herbicidal action against PHBPU; format: in vivo, Pharbitis purpurea; conditions: dosage 80 g/ha
Procedure, shortened: (§1)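 Pre-emergence soil-surface spray of formulated compound (WP or EC; 600 to 800 l/ha; 0.2% wetting agent) over seeds sown in sandy loam. After 3 weeks under greenhouse conditions, damage is estimated visually in percent against untreated plants.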

SETVI [2] = experiment: Post-emergence herbicidal action against SETVI; format: in vivo, Setaria viridis; conditions: dosage 20 g/ha
Procedure, shortened: (§2)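 Spray, one-leaf stage: WP or EC compound in water, 600–800 l/ha, 0.2% wetting agent. Plants held about 3 weeks in the greenhouse, then visually rated in percent of kill compared with untreated controls.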

ECHCG [3] = experiment: Post-emergence herbicidal action against ECHCG; format: in vivo, Echinochloa crus-galli; conditions: Echinochloa crus-galli, 504 h, dosage 20 g/ha
Procedure, shortened: as §2

AVEFA [4] = experiment: Post-emergence herbicidal action against AVEFA; format: in vivo, Avena fatua; conditions: 20 g/ha, visual assessment about 3 weeks after treatment, 100% = plants have died, 0% = like control plants
Procedure, shortened: as §2

ECHCG [5] = experiment: Pre-emergence herbicidal action against ECHCG; format: in vivo, Echinochloa crus-galli; conditions: Echinochloa crus-galli, 504 h, 80 g/ha
Procedure, shortened: as §1

DIGSA [6] = experiment: Post-emergence herbicidal action against DIGSA; format: in vivo, Digitaria sanguinalis
Procedure, shortened: as §2

VIOTR [7] = experiment: Pre-emergence herbicidal action against VIOTR; format: in vivo, Viola tricolor
Procedure, shortened: as §1

ALOMY = experiment: Pre-emergence herbicidal action against ALOMY; format: in vivo, Alopecurus myosuroides; conditions: 80 g/ha, pre-emergence, scored visually after 3 weeks vs untreated controls (100% = plants have died, 0% = like control plants)
Procedure, shortened: as §1

ABUTH [8] = experiment: Post-emergence herbicidal action against ABUTH; format: in vivo, Abutilon theophrasti; conditions: visual assessment about 3 weeks after treatment vs untreated controls
Procedure, shortened: as §2

PHBPU [9] = experiment: Post-emergence herbicidal action against PHBPU; format: in vivo, Pharbitis purpurea
Procedure, shortened: as §2

AVEFA [10] = experiment: Pre-emergence herbicidal action against AVEFA; format: in vivo, Avena fatua; conditions: 80 g/ha, pre-emergence
Procedure, shortened: as §1

STEME [11] = experiment: Post-emergence herbicidal action against STEME; format: in vivo, Stellaria media
Procedure: Seeds of monocotyledonous and dicotyledonous weed and crop plants are laid out in sandy loam soil in wood-fiber pots, covered with soil and cultivated in a greenhouse under good growth conditions. 2 to 3 weeks after sowing, the test plants are treated at the one-leaf stage. The compounds of the invention, formulated in the form of wettable powders (WP) or as emulsion concentrates (EC), are then sprayed onto the green parts of the plants in the form of an aqueous suspension or emulsion at a water application rate equivalent to 600 to 800 l/ha, with addition of 0.2% wetting agent. After the test plants have been left to stand in the greenhouse under optimal growth conditions for about 3 weeks, the action of the preparations is assessed visually in comparison to untreated controls (herbicidal action in percent (%): 100% activity=the plants have died, 0% activity=like control plants). […] The tables below illustrate, in an illustrative manner, the post-emergence herbicidal action of the compounds of the invention, the herbicidal activity being stated in percent.

SETVI [12] = experiment: Pre-emergence herbicidal action against SETVI; format: in vivo, Setaria viridis; conditions: Setaria viridis, 504 h, dosage 80 g/ha
Procedure, shortened: as §1

MATIN [13] = experiment: Post-emergence herbicidal action against MATIN; format: in vivo, Matricaria inodora
Procedure, shortened: as §2

MATIN [14] = experiment: Pre-emergence herbicidal action against MATIN; format: in vivo, Matricaria inodora
Procedure, shortened: as §1

VERPE [15] = experiment: Post-emergence herbicidal action against VERPE; format: in vivo, Veronica persica; conditions: Veronica persica, 504 h
Procedure, shortened: as §2

AMARE [16] = experiment: Post-emergence herbicidal action against AMARE; format: in vivo, Amaranthus retroflexus; conditions: Amaranthus retroflexus, 504 h, 20 g/ha, visual assessment about 3 weeks after treatment, 100% = plants have died, 0% = like control plants
Procedure, shortened: as §2

AMARE [17] = experiment: Pre-emergence herbicidal action against AMARE; format: in vivo, Amaranthus retroflexus
Procedure, shortened: as §1

STEME [18] = experiment: Pre-emergence herbicidal action against STEME; format: in vivo, Stellaria media
Procedure, shortened: as §1

ABUTH [19] = experiment: Pre-emergence herbicidal action against ABUTH; format: in vivo, Abutilon theophrasti
Procedure, shortened: as §1

DIGSA [20] = experiment: Pre-emergence herbicidal action against DIGSA; format: in vivo, Digitaria sanguinalis
Procedure, shortened: as §1

VIOTR [21] = experiment: Post-emergence herbicidal action against VIOTR; format: in vivo, Viola tricolor
Procedure, shortened: as §2

VERPE [22] = experiment: Pre-emergence herbicidal action against VERPE; format: in vivo, Veronica persica; conditions: dosage 80 g/ha
Procedure, shortened: as §1

[23] = Tripleurospermum inodorum, 504 h, dosage 20 g/ha
[24] = 80 g/ha, scored visually after 3 weeks vs untreated controls (100% = plants have died, 0% = like control plants)

Structure (SMILES): CNC(=O)c1c(C(F)F)ccc(C(=O)Nc2nnnn2C)c1C [Example 1-44]
- pest or weed control at 80 g/ha (PHBPU [1]; Ipomoea purpurea, 504 h): 80%
- pest or weed control at 20 g/ha (SETVI [2]; Setaria viridis, 504 h): 90%
- pest or weed control at 20 g/ha (ECHCG [3]): 80%
- pest or weed control at 20 g/ha (AVEFA [4]; Avena fatua, 504 h): 80%
- pest or weed control at 80 g/ha (ECHCG [5]): 90%
- pest or weed control at 5 g/ha (DIGSA [6]; Digitaria sanguinalis, 504 h, 5 g/ha): 80%
- pest or weed control at 20 g/ha (DIGSA [6]; Digitaria sanguinalis, 504 h, 20 g/ha): 90%
- pest or weed control at 80 g/ha (VIOTR [7]; Viola tricolor, 504 h, dosage 80 g/ha): 90%
- pest or weed control at 80 g/ha (ALOMY; Alopecurus myosuroides, 504 h): 90%
- pest or weed control at 5 g/ha (ABUTH [8]; Abutilon theophrasti, 504 h, dosage 5 g/ha): 90%
- pest or weed control at 20 g/ha (ABUTH [8]; Abutilon theophrasti, 504 h, dosage 20 g/ha): 100%
- pest or weed control at 20 g/ha (PHBPU [9]; Ipomoea purpurea, 504 h, dosage 20 g/ha): 80%
- pest or weed control at 80 g/ha (AVEFA [10]; Avena fatua, 504 h): 90%
- pest or weed control at 20 g/ha (STEME [11]; Stellaria media, 504 h, 20 g/ha): 80%
- pest or weed control at 5 g/ha (STEME [11]; Stellaria media, 504 h, dosage 5 g/ha): 80%
- pest or weed control at 80 g/ha (SETVI [12]): 100%
- pest or weed control at 5 g/ha (MATIN [13]; Tripleurospermum inodorum, 504 h, dosage 5 g/ha): 80%
- pest or weed control at 20 g/ha (MATIN [13]; [23]): 90%
- pest or weed control at 20 g/ha (MATIN [14]; [23]): 90%
- pest or weed control at 80 g/ha (MATIN [14]; Tripleurospermum inodorum, 504 h, dosage 80 g/ha): 90%
- pest or weed control at 5 g/ha (VERPE [15]; 5 g/ha): 80%
- pest or weed control at 20 g/ha (VERPE [15]; 20 g/ha): 100%
- pest or weed control at 20 g/ha (AMARE [16]): 100%
- pest or weed control at 20 g/ha (AMARE [17]; Amaranthus retroflexus, 504 h, 20 g/ha, scored visually after 3 weeks vs untreated controls, 100% = plants have died, 0% = like control plants): 100%
- pest or weed control at 80 g/ha (AMARE [17]; Amaranthus retroflexus, 504 h, 80 g/ha, scored visually after 3 weeks vs untreated controls, 100% = plants have died, 0% = like control plants): 100%
- pest or weed control at 20 g/ha (STEME [18]; Stellaria media, 504 h, dosage 20 g/ha): 90%
- pest or weed control at 80 g/ha (STEME [18]; Stellaria media, 504 h, dosage 80 g/ha): 90%
- pest or weed control at 80 g/ha (ABUTH [19]; Abutilon theophrasti, 504 h, 80 g/ha, scored visually after 3 weeks vs untreated controls (100% = plants have died, 0% = like control plants)): 100%
- pest or weed control at 20 g/ha (ABUTH [19]; Abutilon theophrasti, 504 h, dosage 20 g/ha, scored visually after 3 weeks vs untreated controls, 100% = plants have died, 0% = like control plants, read-out: Pre-emergence action against ABUTH (herbicidal activity in percent)): 100%
- pest or weed control at 20 g/ha (DIGSA [20]; Digitaria sanguinalis, 504 h, dosage 20 g/ha): 90%
- pest or weed control at 80 g/ha (DIGSA [20]; Digitaria sanguinalis, 504 h, dosage 80 g/ha): 100%
- pest or weed control at 20 g/ha (VIOTR [21]; Viola tricolor, 504 h, 20 g/ha): 80%

Structure (SMILES): CCCn1nnnc1NC(=O)c1ccc(C(F)(F)F)c(C(=O)NC2CC2)c1C [Example 3-27]
- Pre-emergence action against PHBPU in % (PHBPU [1]): 90%
- Post-emergence action against SETVI in % (SETVI [2]): 90%
- Post-emergence action at 20 g/ha against AVEFA in % (AVEFA [4]): 90%
- Post-emergence action against DIGSA (DIGSA [6]; 20 g/ha): 100%
- Pre-emergence action against VIOTR in % (VIOTR [7]; dosage 20 g/ha): 90%
- Pre-emergence action against VIOTR in % (VIOTR [7]; dosage 80 g/ha): 100%
- Pre-emergence action against ALOMY (herbicidal activity) (ALOMY): 90%
- Post-emergence action against ABUTH in % (ABUTH [8]; dosage 20 g/ha): 100%
- Post-emergence action against PHBPU in % (PHBPU [9]; dosage 5 g/ha): 90%
- Post-emergence action against PHBPU in % (PHBPU [9]; dosage 20 g/ha): 100%
- Pre-emergence action against AVEFA in % (AVEFA [10]): 90%
- Post-emergence action against STEME in % (STEME [11]; 20 g/ha): 80%
- Pre-emergence action against VERPE in % (VERPE [22]): 90%
- Post-emergence action against MATIN in % (MATIN [13]; dosage 5 g/ha): 90%
- Post-emergence action against MATIN in % (MATIN [13]; dosage 20 g/ha): 100%
- Pre-emergence action against MATIN in % (MATIN [14]; dosage 20 g/ha): 100%
- Pre-emergence action against MATIN in % (MATIN [14]; dosage 80 g/ha): 100%
- Pre-emergence action against AMARE in % (AMARE [17]; 20 g/ha, scored visually after 3 weeks vs untreated controls, 100% = plants have died, 0% = like control plants): 100%
- Pre-emergence action against AMARE in % (AMARE [17]; [24]): 100%
- Pre-emergence action against STEME in % (STEME [18]; dosage 20 g/ha): 100%
- Pre-emergence action against STEME in % (STEME [18]; dosage 80 g/ha): 100%
- Pre-emergence action against ABUTH (herbicidal activity) (ABUTH [19]; [24]): 100%
- Pre-emergence action against ABUTH (herbicidal activity in percent) (ABUTH [19]; dosage 20 g/ha, scored visually after 3 weeks vs untreated controls, 100% = plants have died, 0% = like control plants): 100%
- Pre-emergence action against DIGSA in % (DIGSA [20]; dosage 80 g/ha): 100%
- Post-emergence action against VIOTR in % (VIOTR [21]; 5 g/ha): 80%
- Post-emergence action against VIOTR in % (VIOTR [21]; 20 g/ha): 100%
